Assay results: patent US5153223A, “Biurets, aminocarbonyl carbamates, and aminocarbonyl thiocarbamates useful as ACAT inhibitors” (priority 1991, dated 1992)

System: not listed separately
Assay: In vivo screen APCC: plasma total cholesterol in rats on high fat, high cholesterol diet with 0.5% cholic acid
Design: species or system male Sprague-Dawley rats
Conditions: rat APCC, 30 mg/kg, high fat high cholesterol diet overnight
Source text: In one in vivo screen designated APCC, male Sprague-Dawley rats (200 to 225 g) were randomly divided into treatment groups and dosed at 4 PM with either vehicle (CMC/Tween) or suspensions of compounds in vehicle. The norma chow diet was then replaced with a high fat, high cholesterol diet with 0.5% cholic acid. The rats consumed this diet ad libitum during the night and were sacrificed at 8 AM to obtain blood samples for cholesterol analysis using standard procedures. Statistical differences between mean cholesterol values for the same vehicle were determined using analysis of variance followed by Fisher's least significant test. Compounds were dosed at 30 mg/kg unless otherwise noted.

Row | Structure (SMILES) | % Change in Plasma TC Values (mg/dL)
1 | CC(C)c1cccc(C(C)C)c1OC(=O)NC(=O)NC(c1ccccc1)c1ccccc1 [Example 25, [[(diphenylmethyl)amino]carbonyl]carbamic acid, 2,6-bis(1-methylethyl)phenyl ester] | No change

Same assay, conditions: rat APCC, 30 mg/kg, high fat high cholesterol diet overnight; read-out: % Change in Plasma TC Values (mg/dL)

Row | Structure (SMILES) | change in vivo at 30 mg/kg [%]
2 | CCCCCCCCCCC(C)OC(=O)NC(=O)Nc1c(C(C)C)cccc1C(C)C (racemic) [Example 19, (±)[[[2,6-bis(1-methylethyl)phenyl]amino]carbonyl]carbamic acid, 1-methylundecyl ester] | -26
3 | CCCCCCCC(C)OC(=O)NC(=O)Nc1c(C(C)C)cccc1C(C)C (racemic) [Example 20, (±)[[[2,6-bis(1-methylethyl)phenyl]amino]carbonyl]carbamic acid, 1-methyloctyl ester] | -24
4 | CCCCCC(C)OC(=O)NC(=O)Nc1c(C(C)C)cccc1C(C)C (racemic) [Example 21, (±)[[[2,6-bis(1-methylethyl)phenyl]amino]carbonyl]carbamic acid, 1-methylhexyl ester] | -22
5 | CCCCCCCCC(C)OC(=O)NC(=O)Nc1c(C(C)C)cccc1C(C)C (racemic) [Example 22, (±)[[[2,6-bis(1-methylethyl)phenyl]amino]carbonyl]carbamic acid, 1-methylnonyl ester] | -22
6 | CCCCCCCCCCCCCCC(C)OC(=O)NC(=O)Nc1c(C(C)C)cccc1C(C)C (racemic) [Example 23, (±)[[[2,6-bis(1-methylethyl)phenyl]amino]carbonyl]carbamic acid, 1-methylpentadecyl ester] | -26
7 | CCCCCCCCCCCCC(C)OC(=O)NC(=O)Nc1c(C(C)C)cccc1C(C)C (racemic) [Example 24, (±)[[[2,6-bis(1-methylethyl)phenyl]amino]carbonyl]carbamic acid, 1-methyltridecyl ester] | -33
8 | CC(C)c1cccc(C(C)C)c1NC(=O)N(C)C(=O)N(c1ccccc1)c1ccccc1 [Example 1, N'-[2,6-bis(1-methylethyl)phenyl]-2-methyl-N,N-diphenyliminodicarbonic diamide] | -9
9 | CCCCCCCCCCCCCCN(C)C(=O)NC(=O)Nc1c(C(C)C)cccc1C(C)C [Example 14, N'-[2,6-bis(1-methylethyl)phenyl]-N-methyl-N-tetradecylimidodicarbonic diamide] | -8
10 | CC(C)c1cccc(C(C)C)c1NC(=O)NC(=O)Oc1c(C(C)C)cccc1C(C)C [Example 15, [[[2,6-bis(1-methylethyl)phenyl]amino]carbonyl] carbamic acid,2,6-bis(1-methylethyl)phenyl ester] | -9
11 | CCCCCCCCCCCCC(C)(C)OC(=O)NC(=O)Nc1c(C(C)C)cccc1C(C)C [Example 17, [[[2,6-bis(1-methylethyl)phenyl]amino]carbonyl]carbamic acid, 1,1-dimethyltridecyl ester] | -14
12 | CCCCCCCCCCCCOC(=O)NC(=O)Nc1c(C(C)C)cccc1C(C)C [Example 18, [[[2,6-bis(1-methylethyl)phenyl]amino]carbonyl]carbamic acid, dodecyl ester] | -38

Same assay, conditions: rat APCC, *Dosed at 50 mg/kg, high fat high cholesterol diet overnight; read-out: % Change in Plasma TC Values (mg/dL)

Row | Structure (SMILES) | change in vivo at 50 mg/kg [%]
13 | CC(C)c1cccc(C(C)C)c1NC(=O)NC(=O)N(Cc1ccccc1)Cc1ccccc1 [Example 4, N'-[2,6-bis(1-methylethyl)phenyl]-N,N-bis(phenylmethyl)imidodicarbonic diamide] | -13
14 | CC(C)c1cccc(C(C)C)c1NC(=O)NC(=O)N(c1ccccc1)c1ccccc1 [Example 5, N'-[2,6-bis(1-methylethyl)phenyl]-N,N-diphenylimidodicarbonic diamide] | -40
15 | CCCCCCCCN(CCCCCCCC)C(=O)NC(=O)Nc1c(C(C)C)cccc1C(C)C [Example 6, N-[2,6-bis(1-methylethyl)phenyl]-N,N-dioctylimidodicarbonic diamide] | -5
16 | CCCCN(CCCC)C(=O)NC(=O)Nc1c(C(C)C)cccc1C(C)C [Example 7, N'-[2,6-bis(1-methylethyl)phenyl]-N,N-dibutylimidodicarbonic diamide] | -23
17 | CC(C)c1cccc(C(C)C)c1NC(=O)NC(=O)N1c2ccccc2CCc2ccccc21 [Example 8, N-[[[2,6-bis(1-methylethyl)phenyl]amino]carbonyl]-10,11-dihydro-5H-dibenz[b,f]azepin-5-carboxamide] | -18
18 | CC(C)c1cccc(C(C)C)c1NC(=O)NC(=O)N(Cc1ccccc1)C(C)C [Example 11, N'-[2,6-bis(1-methylethyl)phenyl]-N-(1-methylethyl)-N-(phenylmethyl)imidodicarbonic diamide] | -27
19 | CC(C)c1cccc(C(C)C)c1NC(=O)NC(=O)N1c2ccccc2Sc2ccccc21 [Example 12, N-[[[2,6-bis(1-methylethyl)phenyl]amino]carbonyl]-10H-phenothiazine-10-carboxamide] | -19

Molecular target: T1, acyl-CoA: cholesterol acyltransferase (ACAT) (Oryctolagus cuniculus, UniProt G1SFD9)
T1 construct: tissue preparation containing rabbit intestinal microsomes; from tissue; host or cells: rabbit intestinal microsomes
T1 sequence (G1SFD9 1-524): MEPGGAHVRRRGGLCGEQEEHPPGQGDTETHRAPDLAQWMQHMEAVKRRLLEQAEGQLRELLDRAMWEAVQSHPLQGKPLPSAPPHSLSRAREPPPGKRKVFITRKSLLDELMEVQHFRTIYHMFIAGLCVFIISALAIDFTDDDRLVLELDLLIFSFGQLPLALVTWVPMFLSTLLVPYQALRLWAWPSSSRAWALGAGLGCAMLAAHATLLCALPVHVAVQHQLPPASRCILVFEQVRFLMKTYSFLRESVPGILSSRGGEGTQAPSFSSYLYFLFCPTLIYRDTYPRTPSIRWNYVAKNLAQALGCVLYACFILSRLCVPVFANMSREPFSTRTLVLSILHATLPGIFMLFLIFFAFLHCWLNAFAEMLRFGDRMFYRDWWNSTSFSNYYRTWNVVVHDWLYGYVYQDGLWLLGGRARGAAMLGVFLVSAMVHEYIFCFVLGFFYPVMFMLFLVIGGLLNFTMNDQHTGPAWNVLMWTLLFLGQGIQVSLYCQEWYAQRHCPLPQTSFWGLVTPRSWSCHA
Assay: In vitro ACAT inhibition (IAI): radiolabeled cholesterol oleate formed from radiolabeled oleic acid in rabbit intestinal microsomes
Format: biochemical
Conditions: not given
Protocol: The ability of representative compounds of the present invention to inhibit ACAT was measured using an in vitro test more fully described in F. J. Field and R. G. Salone, Biochemica et Biophysica 712:557-570 (1982). The test assesses the ability of a test compound to inhibit the acylation of cholesterol by oleic acid by measuring the amount of radiolabeled cholesterol oleate formed from radiolabeled oleic acid in a tissue preparation containing rabbit intestinal microsomes.
The data appear in Table 1 where they are expressed as IC50 values; i.e., the concentration of test compound required to inhibit the activity of the enzyme by 50%.

Row | Structure (SMILES) | IC50 [nM]
20 | CC(C)c1cccc(C(C)C)c1OC(=O)NC(=O)NC(c1ccccc1)c1ccccc1 [Example 25, [[(diphenylmethyl)amino]carbonyl]carbamic acid, 2,6-bis(1-methylethyl)phenyl ester] | > 1000

Same assay, conditions: rabbit intestinal microsomes, ACAT; read-out: IAI IC50

Row | IC50 [nM] | Structure (SMILES)
21 | 600 | CC(C)c1cccc(C(C)C)c1NC(=O)N(C)C(=O)N(c1ccccc1)c1ccccc1 [Example 1, N'-[2,6-bis(1-methylethyl)phenyl]-2-methyl-N,N-diphenyliminodicarbonic diamide]
22 | > 1000 | CC(C)c1cccc(C(C)C)c1NC(=O)NC(=O)NC(c1ccccc1)c1ccccc1 [Example 2, N-[2,6-bis(1-methylethyl)phenyl)-N'-(diphenylmethyl) iminodicarbonic amide]
23 | > 5000 | CC(C)c1cccc(C(C)C)c1NC(=O)NC(=O)Nc1c(C(C)C)cccc1C(C)C [Example 3, N,N'-bis[2,6-bis(1-methylethyl)phenyl]imidodicarbonic diamide]
24 | 890 | CC(C)c1cccc(C(C)C)c1NC(=O)NC(=O)N1c2ccccc2CCc2ccccc21 [Example 8, N-[[[2,6-bis(1-methylethyl)phenyl]amino]carbonyl]-10,11-dihydro-5H-dibenz[b,f]azepin-5-carboxamide]
25 | > 5000 | CC(C)c1cccc(C(C)C)c1NC(=O)NC(=O)N1CCCC1 [Example 9, N-[[[2,6-bis(1-methylethyl)phenyl]amino]carbonyl]-1-pyrrolidinecarboxamide]
26 | > 5000 | CCN(CC)C(=O)NC(=O)Nc1c(C(C)C)cccc1C(C)C [Example 10, N'-[2,6-bis(1-methylethyl)phenyl]-N,N-diethylimidodicarbonic diamide]
27 | 3500 | CC(C)c1cccc(C(C)C)c1NC(=O)NC(=O)N1CCC(c2ccccc2)CC1 [Example 13, N-[[[2,6-bis(1-methylethyl)phenyl]amino]carbonyl]-1-[(4-phenyl)piperidine]carboxamide]
